Assay results as given in the kinase profiling compilation of Christmann-Franck et al. (2016).

How the values were obtained:
Assay in all cases: SelectScreen, TR FRET
Conditions in all cases: compound 5.0 µM
MAPK1 (human) = MAPK1 (human) (UniProt P28482)
INSR (human) = INSR (human) (UniProt P06213)
AURKA (human) = AURKA (human) (UniProt O14965)
ERBB4 (human) = ERBB4 (human) (UniProt Q15303)
[1] = system: ABL1 (human), P00519 [G250E]
PRKACA (human) = PRKACA (human) (UniProt P17612)
EGFR (human) = EGFR (human) (UniProt P00533)
[2] = system: KIT (human), P10721 [T670I]
PRKCZ (human) = PRKCZ (human) (UniProt Q05513)
ABL1 (human) = ABL1 (human) (UniProt P00519)
PRKCB1 (human) = PRKCB1 (human) (UniProt P05771)
BTK (human) = BTK (human) (UniProt Q06187)
Chain of BTK (human) (Q06187 whole entry, looked up): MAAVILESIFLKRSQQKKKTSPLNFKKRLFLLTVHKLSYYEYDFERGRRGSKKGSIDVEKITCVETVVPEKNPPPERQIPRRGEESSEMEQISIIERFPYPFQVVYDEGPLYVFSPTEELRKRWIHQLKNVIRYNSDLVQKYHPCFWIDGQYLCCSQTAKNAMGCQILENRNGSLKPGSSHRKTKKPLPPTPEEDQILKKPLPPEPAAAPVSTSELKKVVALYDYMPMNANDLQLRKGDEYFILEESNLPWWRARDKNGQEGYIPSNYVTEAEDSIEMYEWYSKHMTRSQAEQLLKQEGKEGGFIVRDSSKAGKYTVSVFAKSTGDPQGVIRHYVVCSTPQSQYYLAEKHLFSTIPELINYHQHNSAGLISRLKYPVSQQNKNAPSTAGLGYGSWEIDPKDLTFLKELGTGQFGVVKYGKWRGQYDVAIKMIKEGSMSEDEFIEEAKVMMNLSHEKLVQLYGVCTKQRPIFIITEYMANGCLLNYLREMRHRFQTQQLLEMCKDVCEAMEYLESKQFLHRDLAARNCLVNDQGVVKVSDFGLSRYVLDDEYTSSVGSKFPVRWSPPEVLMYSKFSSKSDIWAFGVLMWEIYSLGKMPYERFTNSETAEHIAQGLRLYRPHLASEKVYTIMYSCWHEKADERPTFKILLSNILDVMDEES

RPS6KA4 KD1 KD2 (human) = RPS6KA4 KD1 KD2 (human) (UniProt O75676)
Chain of RPS6KA4 KD1 KD2 (human) (O75676 whole entry, looked up): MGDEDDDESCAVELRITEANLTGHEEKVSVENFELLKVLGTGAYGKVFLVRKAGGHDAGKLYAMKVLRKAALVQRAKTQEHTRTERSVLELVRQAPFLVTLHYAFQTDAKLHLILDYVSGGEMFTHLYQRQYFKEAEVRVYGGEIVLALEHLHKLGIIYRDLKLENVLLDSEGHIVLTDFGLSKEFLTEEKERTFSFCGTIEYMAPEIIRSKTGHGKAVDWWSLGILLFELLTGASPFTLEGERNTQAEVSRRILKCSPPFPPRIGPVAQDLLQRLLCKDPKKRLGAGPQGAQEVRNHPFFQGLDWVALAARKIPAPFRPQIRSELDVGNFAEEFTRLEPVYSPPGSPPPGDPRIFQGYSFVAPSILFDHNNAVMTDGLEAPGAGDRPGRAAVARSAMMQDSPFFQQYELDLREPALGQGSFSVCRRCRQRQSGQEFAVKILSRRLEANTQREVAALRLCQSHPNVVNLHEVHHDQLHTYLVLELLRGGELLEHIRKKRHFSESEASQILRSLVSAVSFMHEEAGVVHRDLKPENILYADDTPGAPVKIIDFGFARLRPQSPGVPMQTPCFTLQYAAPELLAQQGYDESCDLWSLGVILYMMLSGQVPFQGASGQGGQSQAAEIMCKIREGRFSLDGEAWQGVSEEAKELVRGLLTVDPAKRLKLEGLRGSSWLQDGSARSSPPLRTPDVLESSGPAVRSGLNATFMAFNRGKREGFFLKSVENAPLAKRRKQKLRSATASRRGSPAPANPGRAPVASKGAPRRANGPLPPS

PLK2 (human) = PLK2 (human) (UniProt Q9NYY3)
CSNK1D (human) = CSNK1D (human) (UniProt P48730)
TSSK1B (human) = TSSK1B (human) (UniProt Q9BXA7)
CHEK2 (human) = CHEK2 (human) (UniProt O96017)
MAPK14 (human) = MAPK14 (human) (UniProt Q16539)
MAPK11 (human) = MAPK11 (human) (UniProt Q15759)
Chain of MAPK11 (human) (Q15759 whole entry, looked up): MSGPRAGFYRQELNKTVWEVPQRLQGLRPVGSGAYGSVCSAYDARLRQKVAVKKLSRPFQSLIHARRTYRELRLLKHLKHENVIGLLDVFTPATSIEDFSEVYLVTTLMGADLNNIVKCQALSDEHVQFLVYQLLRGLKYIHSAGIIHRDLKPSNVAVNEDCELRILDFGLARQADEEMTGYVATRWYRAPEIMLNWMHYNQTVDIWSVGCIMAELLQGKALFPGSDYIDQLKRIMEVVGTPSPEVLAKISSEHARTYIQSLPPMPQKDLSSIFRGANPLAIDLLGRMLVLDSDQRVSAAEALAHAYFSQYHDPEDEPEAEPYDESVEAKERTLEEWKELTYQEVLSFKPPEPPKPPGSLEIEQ

SRC (human) = SRC (human) (UniProt P12931)
PAK6 (human) = PAK6 (human) (UniProt Q9NQU5)
PRKX (human) = PRKX (human) (UniProt P51817)
Chain of PRKX (human) (P51817 whole entry, looked up): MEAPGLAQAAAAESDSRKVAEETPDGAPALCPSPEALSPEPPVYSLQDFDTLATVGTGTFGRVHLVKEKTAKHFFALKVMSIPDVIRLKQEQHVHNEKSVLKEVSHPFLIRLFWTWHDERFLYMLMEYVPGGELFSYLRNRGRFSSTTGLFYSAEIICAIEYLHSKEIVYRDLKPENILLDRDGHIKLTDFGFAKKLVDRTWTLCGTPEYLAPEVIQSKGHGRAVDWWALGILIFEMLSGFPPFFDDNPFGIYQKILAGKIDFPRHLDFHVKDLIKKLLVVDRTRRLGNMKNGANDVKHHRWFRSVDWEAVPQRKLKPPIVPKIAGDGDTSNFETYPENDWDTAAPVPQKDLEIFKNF

BMX (human) = BMX (human) (UniProt P51813)
CAMK2B (human) = CAMK2B (human) (UniProt Q13554)
RPS6KA1 KD1 KD2 (human) = RPS6KA1 KD1 KD2 (human) (UniProt Q15418)
ALK (human) = ALK (human) (UniProt Q9UM73)
MAP2K2 (human) = MAP2K2 (human) (UniProt P36507)
MYLK2 (human) = MYLK2 (human) (UniProt Q9H1R3)
CSNK1G3 (human) = CSNK1G3 (human) (UniProt Q9Y6M4)
RPS6KA2 KD1 KD2 (human) = RPS6KA2 KD1 KD2 (human) (UniProt Q15349)
SGK1 (human) = SGK1 (human) (UniProt O00141)
TAOK2 (human) = TAOK2 (human) (UniProt Q9UL54)
EPHA3 (human) = EPHA3 (human) (UniProt P29320)
NEK2 (human) = NEK2 (human) (UniProt P51955)
[3] = system: FLT3 (human), P36888 [D835Y]
NEK1 (human) = NEK1 (human) (UniProt Q96PY6)
MAPK3 (human) = MAPK3 (human) (UniProt P27361)
FLT1 (human) = FLT1 (human) (UniProt P17948)
Chain of FLT1 (human) (P17948 whole entry, looked up): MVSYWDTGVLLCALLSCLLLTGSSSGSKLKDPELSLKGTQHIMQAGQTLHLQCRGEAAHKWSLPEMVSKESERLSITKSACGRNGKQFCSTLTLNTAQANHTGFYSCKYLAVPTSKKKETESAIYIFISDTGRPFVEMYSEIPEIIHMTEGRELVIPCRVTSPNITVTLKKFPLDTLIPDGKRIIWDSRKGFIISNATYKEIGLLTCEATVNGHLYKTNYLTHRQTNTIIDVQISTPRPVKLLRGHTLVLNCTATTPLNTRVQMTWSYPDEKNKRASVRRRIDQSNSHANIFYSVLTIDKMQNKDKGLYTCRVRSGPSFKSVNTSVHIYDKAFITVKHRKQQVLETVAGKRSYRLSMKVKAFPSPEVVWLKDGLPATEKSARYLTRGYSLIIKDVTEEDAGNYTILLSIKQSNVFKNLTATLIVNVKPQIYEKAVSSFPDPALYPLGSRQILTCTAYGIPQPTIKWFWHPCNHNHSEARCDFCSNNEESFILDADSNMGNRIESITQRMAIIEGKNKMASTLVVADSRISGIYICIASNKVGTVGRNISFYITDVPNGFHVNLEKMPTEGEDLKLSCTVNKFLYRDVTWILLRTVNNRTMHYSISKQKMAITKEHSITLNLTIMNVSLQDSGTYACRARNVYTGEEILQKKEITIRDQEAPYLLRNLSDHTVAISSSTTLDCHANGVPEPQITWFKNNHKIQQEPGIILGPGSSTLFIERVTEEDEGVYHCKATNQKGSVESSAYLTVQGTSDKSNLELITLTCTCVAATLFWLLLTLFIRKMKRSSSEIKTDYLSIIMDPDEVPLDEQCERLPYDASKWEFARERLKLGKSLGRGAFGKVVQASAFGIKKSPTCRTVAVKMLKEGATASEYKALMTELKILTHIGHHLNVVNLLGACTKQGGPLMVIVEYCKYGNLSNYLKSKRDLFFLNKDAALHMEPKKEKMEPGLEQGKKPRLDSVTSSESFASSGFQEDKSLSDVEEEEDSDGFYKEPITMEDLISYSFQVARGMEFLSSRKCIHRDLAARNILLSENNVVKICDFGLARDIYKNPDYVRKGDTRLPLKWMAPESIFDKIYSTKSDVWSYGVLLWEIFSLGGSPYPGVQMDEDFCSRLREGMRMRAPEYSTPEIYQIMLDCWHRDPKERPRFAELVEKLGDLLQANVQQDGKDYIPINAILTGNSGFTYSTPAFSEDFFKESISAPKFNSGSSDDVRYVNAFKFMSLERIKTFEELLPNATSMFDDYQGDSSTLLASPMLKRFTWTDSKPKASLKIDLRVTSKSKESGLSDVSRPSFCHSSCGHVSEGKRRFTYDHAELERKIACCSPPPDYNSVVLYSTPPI

BLK (human) = BLK (human) (UniProt P51451)
[4] = system: EGFR (human), P00533 [L861Q]

Chain of ERBB4 (human) (Q15303 whole entry, looked up): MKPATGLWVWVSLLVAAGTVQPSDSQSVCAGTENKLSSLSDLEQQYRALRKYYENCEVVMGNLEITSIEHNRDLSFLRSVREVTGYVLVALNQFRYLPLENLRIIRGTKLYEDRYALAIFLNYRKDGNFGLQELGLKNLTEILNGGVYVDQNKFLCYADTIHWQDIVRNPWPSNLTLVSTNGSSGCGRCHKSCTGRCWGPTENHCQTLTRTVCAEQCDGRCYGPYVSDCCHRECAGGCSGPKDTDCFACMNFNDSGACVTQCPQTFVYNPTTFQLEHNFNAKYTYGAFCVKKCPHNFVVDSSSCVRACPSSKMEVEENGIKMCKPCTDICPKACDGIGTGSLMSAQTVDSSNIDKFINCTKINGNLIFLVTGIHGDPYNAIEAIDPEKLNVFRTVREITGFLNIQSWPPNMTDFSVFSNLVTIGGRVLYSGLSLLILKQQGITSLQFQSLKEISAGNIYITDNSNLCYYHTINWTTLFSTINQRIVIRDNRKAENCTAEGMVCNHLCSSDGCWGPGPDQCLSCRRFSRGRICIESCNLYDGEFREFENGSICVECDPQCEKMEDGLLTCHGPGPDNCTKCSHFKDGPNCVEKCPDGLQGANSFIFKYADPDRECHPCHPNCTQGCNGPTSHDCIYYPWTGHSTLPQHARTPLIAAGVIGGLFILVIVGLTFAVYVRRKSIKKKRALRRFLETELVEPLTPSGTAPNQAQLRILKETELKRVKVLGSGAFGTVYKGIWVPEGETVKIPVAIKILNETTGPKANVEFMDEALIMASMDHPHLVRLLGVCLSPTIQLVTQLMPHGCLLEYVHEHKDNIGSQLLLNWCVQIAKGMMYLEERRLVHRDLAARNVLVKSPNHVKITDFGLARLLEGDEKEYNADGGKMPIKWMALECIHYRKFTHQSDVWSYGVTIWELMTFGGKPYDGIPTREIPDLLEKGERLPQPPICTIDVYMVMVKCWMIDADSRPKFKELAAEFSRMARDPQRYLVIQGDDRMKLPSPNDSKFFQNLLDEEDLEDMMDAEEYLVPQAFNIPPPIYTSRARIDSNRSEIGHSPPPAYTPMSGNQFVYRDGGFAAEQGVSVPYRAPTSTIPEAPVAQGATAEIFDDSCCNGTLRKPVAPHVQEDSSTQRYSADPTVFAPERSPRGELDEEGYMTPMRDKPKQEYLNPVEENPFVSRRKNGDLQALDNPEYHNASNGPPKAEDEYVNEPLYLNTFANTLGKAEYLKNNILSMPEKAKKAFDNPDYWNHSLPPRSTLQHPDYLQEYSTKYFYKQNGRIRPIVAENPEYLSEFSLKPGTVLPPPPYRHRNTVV

An inhibition (MAPK1 (human)) of 6%, an inhibition (INSR (human)) of 6% and an inhibition (AURKA (human)) of 34% were found for Nc1cc(C(F)(F)F)c(-c2cc(N3CCOCC3)nc(N3CCOCC3)n2)cn1 in this work. The inhibition (ERBB4 (human)) was 10%, the inhibition [1] was -4% and the inhibition (PRKACA (human)) was 0%. For the same molecule, the inhibition (EGFR (human)) was 3%, the inhibition [2] was 13% and the inhibition (PRKCZ (human)) was 2%. The inhibition (ABL1 (human)) was 3%, the inhibition (PRKCB1 (human)) was 30% and the inhibition (BTK (human)) was 3%. The inhibition (RPS6KA4 KD1 KD2 (human)) was 6%, the inhibition (PLK2 (human)) was -2% and the inhibition (CSNK1D (human)) was 4%. It also gave an inhibition (TSSK1B (human)) of -4%, an inhibition (CHEK2 (human)) of 17% and an inhibition (MAPK14 (human)) of 4%. The inhibition (MAPK11 (human)) was 4%, the inhibition (SRC (human)) was 10% and the inhibition (PAK6 (human)) was 0%. It also gave an inhibition (PRKX (human)) of 0%, an inhibition (BMX (human)) of 3% and an inhibition (CAMK2B (human)) of 9%. The inhibition (RPS6KA1 KD1 KD2 (human)) was 5%, the inhibition (ALK (human)) was 1% and the inhibition (MAP2K2 (human)) was 3%. The inhibition (MYLK2 (human)) was 8%, the inhibition (CSNK1G3 (human)) was -3% and the inhibition (RPS6KA2 KD1 KD2 (human)) was 4%. The inhibition (SGK1 (human)) was 25%, the inhibition (TAOK2 (human)) was 6% and the inhibition (EPHA3 (human)) was -2%. It also gave an inhibition (NEK2 (human)) of 7%, an inhibition [3] of 11% and an inhibition (NEK1 (human)) of 8%. The inhibition (MAPK3 (human)) was 7%, the inhibition (FLT1 (human)) was 2% and the inhibition (BLK (human)) was -3%. The inhibition [4] was 6%.
